{
  "source": "paper PMC7076374",
  "about": "“Improved Pharmacokinetics and Tissue Uptake of Complexed Daidzein in Rats” (Pharmaceutics, 2020)",
  "key": {"in vivo [1]": {"experiment": "in vivo", "settings": "rat, iv, 20 mg/kg", "description": "(§1) DAI in the form of a suspension in saline was administered to the rats at the doses of 20 mg/kg (i.v.) and 50 mg/kg (i.p.).\nBlood samples were collected via a retro-orbital puncture at 15 min, 30 min, 3 h, 5 h, and 24 h after i.v. administration. The first two blood samples (at 15 min and 30 min) were withdrawn while the rats were still under general anesthesia. For the later time-points, the blood was taken under a short isoflurane anesthesia. One mL of saline was administered i.p. after every blood withdrawal to compensate the loss of water. The rats were sacrificed by decapitation 24 h after compound administration. All blood samples were centrifuged to obtain serum. The serum samples were frozen in a freezer at −80 °C.\n(§2) PK parameters were calculated using a non-compartmental approach from the average concentration values, using Phoenix WinNonlin software (Certara, St. Louis, MO, USA). The first-order elimination rate constant (λz) was calculated by linear regression of log concentration versus time. The area under the mean serum and tissue concentration versus time curve (AUC0⟶t) was calculated from zero to the last concentration point using the linear trapezoidal rule as (1) AUC0→t=∑i=1nCi+Ci+1/2·(ti+1−ti) where Ci is the concentration of the compound.\n(§3) The area under the first-moment curve (AUMC0⟶t) was estimated by calculation of the total area under the first-moment curve:(2) AUMC0→t=∑i=1n((ti·Ci+ti+1·Ci+1)/2)·(ti+1−ti) where ti is the […].\n(§4) Mean residence time (MRT) was calculated as (3) MRT=AUMC0→t/AUC0→t\nSystemic clearance (Cl) was calculated as (4) Cl=Div/AUC0→t\nThe volume of distribution at steady state (Vss) was calculated as (5) Vss=Div⋅AUMC0→t/(AUC0→t)^2"}, "in vivo [2]": {"experiment": "in vivo", "settings": "for tmax: DAI in suspension, i.p. 50 mg/kg, rat serum", "description": "as §1\nThe second study was conducted in 48 animals to assess DAI tissue penetration and bioavailability. […] Animals were deeply anaesthetized by i.p. injections of 50 mg/kg ketamine plus 8 mg/kg xylazine before sacrifice. First, the blood was collected by retro-orbital puncture, and the blood samples were centrifuged to obtain serum. The serum samples were frozen in a freezer at −80 °C. A whole-body saline perfusion was then performed after wide laparotomy when the heart was exposed, and the tip of the needle was inserted into the left ventricle and the right atrium was cut to allow efflux of blood. This procedure allowed the blood from all tissues to be washed out to determine the amount of DAI in the tissue, excluding its content in the blood. Following the animals’ euthanasia, the following samples were collected: whole brain, whole eyes, liver lobe, abdominal fat, one kidney, whole spleen, one testis, and selected parts of heart and lungs. The brain was cut between hemispheres in halves; one half was weighed, inserted into 2 mL of SDS-tris lysing buffer (100 mM tris buffer, 10% glycerol, 1% sodium dodecyl sulfate), and homogenized with a tissue homogenizer. The other half of the brain, the homogenates, and all other tissue samples collected were immediately shock-frozen in liquid nitrogen and stored at −80 °C for future analysis.\nas §2, §3, §4"}, "[3]": {"settings": "healthy premenopausal women, cited from earlier work"}, "[4]": {"settings": "male, rat, in vivo, ip, 50 mg/kg"}},
  "note": "Where two headings read alike, the source gives them in different places.",
  "data": [
    {"molecule": "O=c1c(-c2ccc(O)cc2)coc2cc(O)ccc12", "note": "[DAI in Suspension, 7-hydroxy-3-(4-hydroxyphenyl)-4H-chromen-4-one]", "values": [
      {"measurement": "AUC", "setting": "in vivo [1]", "value": 1580, "unit": "ng·h/mL"},
      {"measurement": "C0", "setting": "in vivo [1]", "value": 6160, "unit": "ng/mL"},
      {"measurement": "MRT", "setting": "in vivo [1]", "value": 4.29, "unit": "h"},
      {"measurement": "clearance", "setting": "in vivo [1]", "value": 211, "unit": "mL/min/kg"},
      {"measurement": "half-life", "setting": "in vivo [1]", "value": 3.83, "unit": "h"},
      {"measurement": "tmax", "setting": "in vivo [2]; 50 mg/kg", "value": 0.75, "unit": "h"},
      {"measurement": "bioavailability", "setting": "in vivo [2]; male, rat, in vivo", "value": 28.2, "unit": "%"},
      {"measurement": "AUC", "setting": "in vivo [2]; [4]", "value": 1110, "unit": "ng·h/mL"},
      {"measurement": "CL/F", "setting": "in vivo [2]; [4]", "value": 775, "unit": "mL/min/kg"},
      {"measurement": "MRT", "setting": "in vivo [2]; [4]", "value": 3.63, "unit": "h"},
      {"measurement": "Vd/F", "setting": "in vivo [2]; [4]", "value": 220, "unit": "L/kg"},
      {"measurement": "half-life", "setting": "in vivo [2]; [4]", "value": 3.41, "unit": "h"},
      {"measurement": "Cmax", "setting": "in vivo [2]; male, rat, in vivo, ip, 50 mg/kg, Cmax", "value": 173, "unit": "ng/mL"},
      {"measurement": "tmax", "setting": "in vivo [2]; male, rat, in vivo, ip, 50 mg/kg, tmax", "value": "≤ 0.75", "unit": "h"},
      {"measurement": "Bioavailability of DAI", "setting": "[3]; first value of '5.15% vs. 8.7%', at higher intakes", "value": 5.15, "unit": "%"},
      {"measurement": "Bioavailability of DAI", "setting": "[3]; second (comparison) value of '5.15% vs. 8.7%'", "value": 8.7, "unit": "%"}
    ]}
  ]
}
